# The source made the active and inactive calls. The rule behind the calls is not given here.
# Assays:
# Histone deacetylase 1 [1] = target: T1, Histone deacetylase 1 (Homo sapiens, UniProt Q13547); test: Induction of HDAC1 degradation in human RS4-11 cells at 0.5 to 10 uM incubated for 12 hrs by Western blotting analysis; format: cell-based; settings: dose 0.5-10 µM
# [2] = target: T2, Protein deacetylase HDAC6 (Homo sapiens) (UniProt Q9UBN7); test: Induction of HDAC6 degradation in human RS4-11 cells at 0.5 to 10 uM incubated for 12 hrs by Western blotting analysis; format: cell-based; settings: dose 0.5-10 µM
# T2 sequence (whole entry): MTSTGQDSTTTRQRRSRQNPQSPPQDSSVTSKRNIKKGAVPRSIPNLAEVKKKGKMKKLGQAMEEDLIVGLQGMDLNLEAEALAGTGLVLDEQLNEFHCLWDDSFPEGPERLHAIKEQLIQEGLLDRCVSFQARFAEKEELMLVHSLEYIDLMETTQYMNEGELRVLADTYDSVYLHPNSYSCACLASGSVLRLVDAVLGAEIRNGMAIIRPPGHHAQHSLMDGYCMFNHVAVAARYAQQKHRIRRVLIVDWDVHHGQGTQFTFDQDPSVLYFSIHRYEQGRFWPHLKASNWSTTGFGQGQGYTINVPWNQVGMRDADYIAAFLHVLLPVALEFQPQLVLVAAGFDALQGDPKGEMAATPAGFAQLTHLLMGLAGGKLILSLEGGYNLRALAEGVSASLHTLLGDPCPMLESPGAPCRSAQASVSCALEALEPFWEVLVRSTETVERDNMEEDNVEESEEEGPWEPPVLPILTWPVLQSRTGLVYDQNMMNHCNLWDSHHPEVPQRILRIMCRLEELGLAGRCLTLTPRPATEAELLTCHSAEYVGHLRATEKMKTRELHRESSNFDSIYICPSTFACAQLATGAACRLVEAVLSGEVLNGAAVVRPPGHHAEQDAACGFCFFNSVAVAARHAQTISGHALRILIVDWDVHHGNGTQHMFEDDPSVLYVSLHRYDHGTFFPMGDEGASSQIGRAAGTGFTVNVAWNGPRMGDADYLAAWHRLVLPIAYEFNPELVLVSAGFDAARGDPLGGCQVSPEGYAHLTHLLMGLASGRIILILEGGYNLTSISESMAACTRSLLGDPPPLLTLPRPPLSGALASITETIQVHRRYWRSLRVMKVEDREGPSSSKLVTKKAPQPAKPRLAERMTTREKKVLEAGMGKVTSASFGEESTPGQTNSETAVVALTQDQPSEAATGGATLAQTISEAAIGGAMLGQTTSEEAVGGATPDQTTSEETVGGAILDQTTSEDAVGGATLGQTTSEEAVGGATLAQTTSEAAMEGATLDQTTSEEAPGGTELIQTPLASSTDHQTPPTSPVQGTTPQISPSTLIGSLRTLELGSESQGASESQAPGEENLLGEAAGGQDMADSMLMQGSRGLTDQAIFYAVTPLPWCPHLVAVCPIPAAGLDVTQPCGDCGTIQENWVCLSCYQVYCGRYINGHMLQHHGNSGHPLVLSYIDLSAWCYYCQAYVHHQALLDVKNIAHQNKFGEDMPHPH
# [3] = target: T3, Histone deacetylase (Homo sapiens) (UniProt Q13547+O15379+Q9UBN7+Q92769+Q9UQL6+Q8WUI4+Q9BY41+Q96DB2+P56524+Q9UKV0+Q969S8); test: Inhibition of HDAC in human RS4-11 cells assessed as upregulation of histone H3 acetylation by Western blot assay; format: cell-based
# Histone deacetylase 1 [4] = target: T1, Histone deacetylase 1; test: Inhibition of HDAC1 (unknown origin) using BocLys(acetyl)-AMC as substrate incubated for 1 hr by fluorescence plate reader analysis
# Histone deacetylase 4 = Histone deacetylase 4 (Homo sapiens, UniProt P56524); test: Inhibition of HDAC4 in human HeLa cells nuclear extract using BocLys(acetyl)-AMC as substrate incubated for 1 hr by fluorescence plate reader analysis; format: subcellular, Nucleus
# Histone deacetylase 9 = Histone deacetylase 9 (Homo sapiens, UniProt Q9UKV0); test: Inhibition of HDAC9 in human HeLa cells nuclear extract using BocLys(acetyl)-AMC as substrate incubated for 1 hr by fluorescence plate reader analysis; format: subcellular, Nucleus
# [5] = target: T4, Protein deacetylase HDAC6 (Homo sapiens, UniProt Q9UBN7); test: Inhibition of HDAC6 (unknown origin) using BocLys(acetyl)-AMC as substrate incubated for 1 hr by fluorescence plate reader analysis
# T4 sequence (Q9UBN7 whole entry): T2 sequence (whole entry)
# Histone deacetylase 11 = target: T5, Histone deacetylase 11 (Homo sapiens, UniProt Q96DB2); test: Inhibition of HDAC11 in human HeLa cells nuclear extract using BocLys(acetyl)-AMC as substrate incubated for 1 hr by fluorescence plate reader analysis; format: subcellular, Nucleus
# T5 sequence (Q96DB2 whole entry): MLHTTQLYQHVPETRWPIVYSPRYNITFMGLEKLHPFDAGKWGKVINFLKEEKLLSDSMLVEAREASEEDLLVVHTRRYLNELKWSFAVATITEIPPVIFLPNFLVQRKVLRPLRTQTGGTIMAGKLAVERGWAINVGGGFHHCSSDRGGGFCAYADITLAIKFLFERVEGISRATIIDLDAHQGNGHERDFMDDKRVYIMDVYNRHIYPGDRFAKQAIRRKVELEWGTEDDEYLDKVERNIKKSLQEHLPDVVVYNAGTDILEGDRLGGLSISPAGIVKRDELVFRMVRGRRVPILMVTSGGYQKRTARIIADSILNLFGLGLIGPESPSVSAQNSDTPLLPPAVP
# HCT-116 = test: Antiproliferative activity against human HCT-116 cells assessed as cell growth inhibition at 5 uM incubated for 48 hrs by CCK-8 assay; format: functional, cell-based
# RS4-11 [6] = test: Antiproliferative activity against human RS4-11 cells assessed as cell growth inhibition at 5 uM incubated for 48 hrs by CCK-8 assay; format: functional, cell-based
# K562 [7] = test: Antiproliferative activity against human K562 cells assessed as cell growth inhibition at 5 uM incubated for 48 hrs by CCK-8 assay; format: functional, cell-based
# RPMI-8226 = test: Antiproliferative activity against human RPMI-8226 cells assessed as cell growth inhibition incubated for 48 hrs by CCK-8 assay; format: functional, cell-based; settings: RPMI-8226, 48 h
# K562 [8] = test: Antiproliferative activity against human K562 cells assessed as cell growth inhibition incubated for 48 hrs by CCK-8 assay; format: functional, cell-based; settings: K562, 48 h
# [9] = target: T3, Histone deacetylase (Homo sapiens); test: Inhibition of HDAC in human RS4-11 cells assessed as upregulation of histone H3 acetylation at 1 to 10 uM by Western blot assay; format: cell-based; settings: dose 1-10 µM
# [10] = target: T2, Protein deacetylase HDAC6 (Homo sapiens); test: Inhibition of HDAC6 in human RS4-11 cells assessed as upregulation of alpha-tubulin acetylation at 1 to 10 uM by Western blot assay; format: cell-based; settings: dose 1-10 µM
# RS4-11 [11] = test: Induction of apoptosis in human RS4-11 cells assessed as upregulation of p21 at 1 to 10 uM; format: functional, cell-based; settings: dose 1-10 µM
# RS4-11 [12] = test: Induction of apoptosis in human RS4-11 cells assessed as cleaved caspase-9 release at 1 to 10 uM; format: functional, cell-based; settings: dose 1-10 µM
# RS4-11 [13] = test: Induction of apoptosis in human RS4-11 cells assessed as cleavage of caspase-3 at 1 to 10 uM; format: functional, cell-based; settings: dose 1-10 µM
# RS4-11 [14] = test: Induction of cell cycle arrest in human RS4-11 cells assessed as S phase arrest after 48 hrs by PI staining based flow cytometry analysis; format: functional; settings: dose 1-10 µM
# RS4-11 [15] = test: Induction of apoptosis in human RS4-11 cells after 48 hrs by Annexin V-FITC/PI staining based flow cytometry analysis; format: functional, cell-based; settings: dose 1-10 µM
# T1 sequence (Q13547 whole entry): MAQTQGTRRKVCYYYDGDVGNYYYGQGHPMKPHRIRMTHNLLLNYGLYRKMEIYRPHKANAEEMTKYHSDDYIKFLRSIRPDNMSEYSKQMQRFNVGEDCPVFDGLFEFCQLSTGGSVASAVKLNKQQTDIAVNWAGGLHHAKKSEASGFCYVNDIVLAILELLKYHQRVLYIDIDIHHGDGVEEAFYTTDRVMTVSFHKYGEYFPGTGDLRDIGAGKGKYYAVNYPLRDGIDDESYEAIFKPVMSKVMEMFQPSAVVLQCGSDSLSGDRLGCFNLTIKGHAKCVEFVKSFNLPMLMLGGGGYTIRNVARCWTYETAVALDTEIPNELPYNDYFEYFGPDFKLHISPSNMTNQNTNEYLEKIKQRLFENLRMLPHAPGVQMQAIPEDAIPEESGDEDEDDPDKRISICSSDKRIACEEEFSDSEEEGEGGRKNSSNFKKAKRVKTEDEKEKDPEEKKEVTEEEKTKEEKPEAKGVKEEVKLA
# Chain of Histone deacetylase 9 (Q9UKV0 whole entry): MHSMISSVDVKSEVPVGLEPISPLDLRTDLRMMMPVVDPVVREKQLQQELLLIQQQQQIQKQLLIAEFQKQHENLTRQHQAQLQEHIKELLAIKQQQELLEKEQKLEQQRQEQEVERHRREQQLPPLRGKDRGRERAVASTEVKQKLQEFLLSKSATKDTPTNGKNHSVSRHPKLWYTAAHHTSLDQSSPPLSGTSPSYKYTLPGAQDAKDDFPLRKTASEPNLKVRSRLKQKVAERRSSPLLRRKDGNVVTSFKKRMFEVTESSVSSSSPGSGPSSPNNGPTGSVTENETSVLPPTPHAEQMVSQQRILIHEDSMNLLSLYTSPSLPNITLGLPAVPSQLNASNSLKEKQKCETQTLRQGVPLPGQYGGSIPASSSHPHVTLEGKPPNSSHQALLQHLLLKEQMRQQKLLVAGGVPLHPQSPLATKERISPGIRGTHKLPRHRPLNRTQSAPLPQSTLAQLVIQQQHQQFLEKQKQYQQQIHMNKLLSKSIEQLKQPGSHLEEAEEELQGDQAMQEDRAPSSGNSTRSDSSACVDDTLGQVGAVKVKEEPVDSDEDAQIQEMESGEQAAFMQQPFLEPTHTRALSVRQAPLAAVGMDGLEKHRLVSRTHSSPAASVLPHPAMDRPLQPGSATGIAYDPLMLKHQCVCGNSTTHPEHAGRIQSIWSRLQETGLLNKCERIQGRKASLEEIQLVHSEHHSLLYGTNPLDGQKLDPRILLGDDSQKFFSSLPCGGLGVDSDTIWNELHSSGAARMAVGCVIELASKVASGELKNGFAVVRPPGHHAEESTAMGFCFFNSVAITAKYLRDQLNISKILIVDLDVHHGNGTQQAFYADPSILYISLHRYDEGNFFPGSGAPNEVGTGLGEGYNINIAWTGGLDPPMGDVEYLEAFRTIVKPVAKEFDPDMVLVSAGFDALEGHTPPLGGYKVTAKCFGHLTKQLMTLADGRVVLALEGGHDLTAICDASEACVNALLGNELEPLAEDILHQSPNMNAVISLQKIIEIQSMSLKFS
# Chain of Histone deacetylase 4 (P56524 whole entry): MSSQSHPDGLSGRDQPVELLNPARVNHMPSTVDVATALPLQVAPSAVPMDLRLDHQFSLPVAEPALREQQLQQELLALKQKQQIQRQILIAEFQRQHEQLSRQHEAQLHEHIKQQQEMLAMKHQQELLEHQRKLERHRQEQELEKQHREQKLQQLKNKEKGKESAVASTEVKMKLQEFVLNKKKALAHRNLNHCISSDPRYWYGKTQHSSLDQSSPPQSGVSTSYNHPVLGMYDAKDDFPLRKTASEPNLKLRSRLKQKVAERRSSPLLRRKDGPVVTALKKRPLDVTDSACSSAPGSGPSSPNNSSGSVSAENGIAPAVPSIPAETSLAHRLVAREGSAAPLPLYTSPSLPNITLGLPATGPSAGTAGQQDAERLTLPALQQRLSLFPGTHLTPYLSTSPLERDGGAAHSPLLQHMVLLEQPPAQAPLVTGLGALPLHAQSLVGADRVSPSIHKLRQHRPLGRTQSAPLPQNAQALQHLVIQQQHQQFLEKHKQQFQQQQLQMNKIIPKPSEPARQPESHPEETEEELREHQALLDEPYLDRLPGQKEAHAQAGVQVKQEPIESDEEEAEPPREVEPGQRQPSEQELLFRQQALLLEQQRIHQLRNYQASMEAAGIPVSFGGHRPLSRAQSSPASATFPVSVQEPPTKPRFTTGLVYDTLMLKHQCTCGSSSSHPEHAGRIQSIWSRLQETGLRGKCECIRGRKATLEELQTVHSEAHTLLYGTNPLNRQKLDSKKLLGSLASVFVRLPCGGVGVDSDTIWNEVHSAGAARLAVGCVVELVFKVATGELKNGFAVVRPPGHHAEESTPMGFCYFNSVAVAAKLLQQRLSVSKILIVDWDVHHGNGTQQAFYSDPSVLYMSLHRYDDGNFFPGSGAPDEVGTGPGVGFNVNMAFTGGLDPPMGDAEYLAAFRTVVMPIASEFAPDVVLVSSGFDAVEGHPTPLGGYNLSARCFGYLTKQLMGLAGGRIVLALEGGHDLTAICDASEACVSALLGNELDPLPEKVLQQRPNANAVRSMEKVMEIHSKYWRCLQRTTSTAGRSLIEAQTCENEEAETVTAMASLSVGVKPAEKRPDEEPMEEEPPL
SMILES,Activity (Histone deacetylase 1 [1]),Activity [2],inhibition [3],IC50 (Histone deacetylase 1 [4]) [nM],IC50 (Histone deacetylase 4) [nM],IC50 (Histone deacetylase 9) [nM],IC50 [5] [nM],IC50 (Histone deacetylase 11) [nM],Activity (HCT-116),Activity (RS4-11 [6]),Activity (K562 [7]),IC50 (RPMI-8226) [µM],IC50 (K562 [8]) [µM],Activity [9],Activity [10],Activity (RS4-11 [11]),Activity (RS4-11 [12]),Activity (RS4-11 [13]),Activity (RS4-11 [14]),Activity (RS4-11 [15])
Nc1ccccc1NC(=O)c1ccc(CNc2cccc3c2C(=O)N(C2CCC(=O)NC2=O)C3=O)cc1 (stereo not given),inactive,inactive,Active,551,> 2000,> 2000,> 2000,> 2000,inactive,Active,Active,5.75,5.54,Active,inactive,Active,Active,Active,Dose-Dependent Effect,Dose-Dependent Effect
Nc1cc(F)ccc1NC(=O)c1ccc(CNc2cccc3c2C(=O)N(C2CCC(=O)NC2=O)C3=O)cc1 (stereo not given),inactive,inactive,Active,457,> 2000,> 2000,> 2000,> 2000,inactive,Active,Active,3.72,5.35,Active,inactive,Active,Active,Active,Dose-Dependent Effect,Dose-Dependent Effect

# Reference: ChEMBL document CHEMBL5532657, “Serendipitous discovery of Class I HDAC inhibitors from rational design of molecular glue degraders targeting HDAC” (Eur J Med Chem, 2024)
